From patent US20250082651A1, “GANAXOLONE FOR USE IN TREATING GENETIC EPILEPTIC DISORDERS” (Marinus Pharmaceuticals, Inc., priority 2017, published 2025)
Values joined by “and” are separate entries in the source; they are usually repeats but may differ in a detail not shown here. Equal entries are not always repeated.

Experiments:
[1] = system: children with Lennox-Gastaut Syndrome; assay: Phase 2 open-label trial, LGS cohort, seizure efficacy; format: in vivo, human
Text: (§1) Example 3 concerns a Phase 2 Multicenter, Open-Label Proof-of-Concept Trial of ganaxolone (GNX) in cohorts of children having genetic epilepsies (PCDH19, CDKL5 LGS, and CSWS) (ClinicalTrials.gov Identifier: NCT02358538). There were 11 female children with PCDH19 epilepsy between 5-16 years old with a confirmed genetic mutation. There were 6 female and 1 male children with confirmed genetic mutations in the CDKL5 cohort. There were 10 children in the Lennox Gastaut Syndrome cohort. Two children with CSWS were enrolled into the study. The study was conducted with 12 weeks baseline, and up to 26 weeks of treatment followed by a 52 week open label treatment. The primary efficacy was the percentage change in seizure frequency per 28 days relative to baseline calculated using daily seizure diary. [Time Frame: 26 weeks]. Secondary Outcome Measures were: Clinician Global Impression of Change score as assessed by questionnaire. [Time Frame: 26 Weeks]; Patient Global Impression of Change score as assessed by questionnaire. [Time Frame: 26 Weeks]; Evaluation of safety and tolerability of open-label ganaxolone as adjunctive therapy for uncontrolled seizures in children with rare genetic epilepsies, based on adverse event log and other clinical safety assessments. [Time Frame: 26 weeks]; Responder rates [Time Frame: 26 weeks]; and Seizure free days [Time Frame: 26 weeks].
(§2) Following screening and baseline evaluations, consenting patients enrolled into a 26-week study during which investigators were allowed to flexibly dose ganaxolone up to a dose of 1,800 mg/day for patients whose body weight was >30 kg, or up to 63 mg/kg/day for patients whose body-weight was <30 kg. The primary efficacy measure is % change from baseline in the 28-day seizure frequency count. Safety and tolerability were within the secondary objectives of the study.
In this study, oral ganaxolone suspension or capsules were administered up to a total of 63 mg/kg/day (maximum 1800 mg/day) over 2-4 weeks. About six-eight titration steps are used, depending on the size of the patient. Children larger than 30 kg may take the ganaxolone capsules. The ganaxolone oral suspension was administered through an oral dosing syringe three times daily. The ganaxolone capsules were administered twice daily. The patients experience better absorption of the ganaxolone with meals (milk).
After establishing baseline seizure frequency, qualifying subjects entered the study and were treated with open-label ganaxolone oral suspension or ganaxolone capsules at doses up to a maximum of 1800 mg/day for up to 6 months. Maximum study participation was 94 weeks: a screening period up to 12 weeks to establish baseline seizure frequency, up to 26 weeks of treatment, a 52 week extension for subjects who benefited from ganaxolone treatment, and up to 4 weeks of down titration period. […] Refractive cases of LGS or CSWS that had prior response to steroid or ACTH could also have been enrolled.
Ganaxolone oral suspension was administered through an oral dosing syringe by parent or legal guardian 3 times daily (TID), following the morning, noon, and evening meal or snack. Each dose was separated by a minimum of 4 hours and a maximum of 8 hours. A missed dose of ganaxolone could have been taken up to 4 hours before the next scheduled dose; otherwise, the missed dose was not to be given.
Ganaxolone capsules were administered with a glass of water or other liquid 2 times daily (BID), following the morning and evening meal or snack. Ganaxolone was provided as either an oral suspension or capsules based on the subject's weight at study entry. Ganaxolone oral suspension was administered through an oral dosing syringe TID by a parent or guardian, following the morning, midday, and evening meal or snack. Each dose was separated by a minimum of 4 hours and a maximum of 8 hours. Ganaxolone capsules were administered BID, following the morning and evening meal or snack. […]

[2] = system: children with rare genetic epilepsies; assay: Phase 2 open-label trial, safety, tolerability and disposition; format: in vivo, human
Text: as §1, §2
A total of 30 subjects were enrolled in the study: one-half (15 subjects) completed the 26-week open-label treatment period and one-half (15 subjects) discontinued the study. In total, the main reasons for study discontinuation in the safety population were lack of efficacy (8 subjects [26.7%]), and AE or SAE (4 subjects [13.3%)]). All 30 (100.0%) subjects were in the safety and MITT population.
Ganaxolone was generally safe and well-tolerated in subjects with epilepsy disorders. […] In the CDD cohort, 6 subjects (85.7%) experienced a total of 45 TEAEs; in the CSWS cohort, 1 subject (50.0%) had 7 TEAEs; in the LGS cohort, 7 subjects (70.0%) had 24 TEAEs; and in the PCDH19 cohort, 11 subjects (100.0%) had 95 TEAEs.
No deaths were reported in this study.

rats = assay: Intravenous ganaxolone in rats: EEG and status epilepticus models; format: in vivo, rat
[3] = human plasma following oral administration; cited from earlier work

CC(=O)[C@H]1CC[C@H]2[C@@H]3CC[C@H]4C[C@](C)(O)CC[C@]4(C)[C@H]3CC[C@]12C [Ganaxolone, 3α-hydroxy-3β-methyl-5α-pregnan-20-one]
28-day seizure frequency, sum of individual seizures and clusters, post-baseline 26-week open-label period, Mean (SD) ([1]; LGS N=10, MITT): 263.66 (502.176) | 28-day seizure frequency, sum of individual seizures and clusters, post-baseline 26-week open-label period, Median ([1]; LGS N=10, MITT): 65.08 | 28-day seizure frequency, sum of individual seizures and clusters, post-baseline through Month 3 (Day 91), Mean (SD) ([1]; LGS N=10, MITT): 263.91 (502.477) | 28-day seizure frequency, sum of individual seizures and clusters, post-baseline through Month 3 (Day 91), Median ([1]; LGS N=10, MITT): 75.91 | Percent change from baseline (at Day 91), 28-day seizure frequency, sum of individual seizures and clusters, Mean (SD) ([1]; LGS N=10, MITT): 122.10% and 122.10 (321.124) % | Percent change from baseline (at Week 26), 28-day seizure frequency, sum of individual seizures and clusters, Mean (SD) ([1]; LGS N=10, MITT): 125.38% and 125.38 (319.051) % | Percent change from baseline (at Week 26), 28-day seizure frequency, sum of individual seizures and clusters, Median ([1]; LGS N=10, MITT): −9.19% | Mean percent change in 28-day total seizure frequency from baseline to Week 26 ([1]; LGS cohort, PP Population): 18.43% | Median percent change in 28-day total seizure frequency from baseline to Week 26 ([1]; LGS cohort, PP Population): 11.15% | Clinical global impression of improvement: much improved ([1]; LGS cohort, end of Week 26): 1 subject | Clinical global impression of improvement: very much improved ([1]; LGS cohort, end of Week 26): 1 subject | Percent change from baseline (at Day 91), 28-day individual seizure frequency, Mean (SD) ([1]; LGS n=9, MITT): 226.72% and 226.72 (496.750) % | Percent change from baseline (at Day 91), 28-day individual seizure frequency, Median ([1]; LGS n=9, MITT): −9.56% | Percent change from baseline (at Week 26), 28-day individual seizure frequency, Mean (SD) ([1]; LGS n=9, MITT): 229.90% and 229.90 (494.164) % | Percent change from baseline (at Week 26), 28-day individual seizure frequency, Median ([1]; LGS n=9, MITT): 5.04% | 28-day individual seizure frequency, post-baseline 26-Week open-label period, Mean (SD) ([1]; LGS n=10, MITT): 257.07 (503.453) | 28-day individual seizure frequency, post-baseline 26-Week open-label period, Median ([1]; LGS n=10, MITT): 55.93 | 28-day individual seizure frequency, post-baseline through Month 3 (Day 91), Mean (SD) ([1]; LGS n=10, MITT): 256.48 (503.934) | 28-day individual seizure frequency, post-baseline through Month 3 (Day 91), Median ([1]; LGS n=10, MITT): 64.71 | Total number of TEAEs ([2]; CDD cohort): 45 TEAEs | Subjects experiencing TEAEs ([2]; CDD cohort, safety population): 85.7% | Discontinued during the 26-week open-label period, reason AE or SAE ([2]; CDKL5 N = 7): 0 n (%) | Discontinued during the 26-week open-label period, reason lack of efficacy ([2]; CDKL5 N = 7): 1 n (%) | Discontinued during the 26-week open-label period, reason AE or SAE ([2]; CSWS N = 2): 1 n (%) | Discontinued during the 26-week open-label period, reason lack of efficacy ([2]; CSWS N = 2): 1 n (%) | Subjects experiencing TEAEs ([2]; CSWS cohort): 50.0% | Total number of TEAEs ([2]; CSWS cohort): 7 TEAEs | Discontinued during the 26-week open-label period, reason AE or SAE ([2]; LGS N = 10): 1 (10.0) n (%) | Discontinued during the 26-week open-label period, reason lack of efficacy ([2]; LGS N = 10): 3 (30.0) n (%) | Subjects experiencing TEAEs ([2]; LGS cohort): 70.0% | Total number of TEAEs ([2]; LGS cohort): 24 TEAEs | Adverse event: Abdominal pain ([2]; PCDH19 N = 11): 2 (18.2) N (%) | Adverse event: Fatigue ([2]; PCDH19 N = 11): 3 (27.3) N (%) | Adverse event: Headache ([2]; PCDH19 N = 11): 3 (27.3) N (%) | Adverse event: Pyrexia ([2]; PCDH19 N = 11): 2 (18.2) N (%) | Adverse event: Seizure ([2]; PCDH19 N = 11): 3 (27.3) N (%) | Adverse event: Somnolence ([2]; PCDH19 N = 11): 4 (36.4) N (%) | Adverse event: Vomiting ([2]; PCDH19 N = 11): 2 (18.2) N (%) | Discontinued during the 26-week open-label period, reason AE or SAE ([2]; PCDH19 N = 11): 2 n (%) | Discontinued during the 26-week open-label period, reason lack of efficacy ([2]; PCDH19 N = 11): 3 n (%) | Subjects experiencing TEAEs ([2]; PCDH19 cohort): 100.0% | Total number of TEAEs ([2]; PCDH19 cohort): 95 TEAEs | Discontinued during the 26-week open-label period, reason AE or SAE ([2]; Total N = 30): 4 n (%) | Discontinued during the 26-week open-label period, reason lack of efficacy ([2]; Total N = 30): 8 n (%) | Deaths ([2]; all cohorts): No deaths | Subjects experiencing SAEs ([2]; all cohorts, N=30): 20.0% | Subjects overall experiencing TEAEs ([2]; all cohorts, N=30): 83.3% | Subjects with a TEAE that led to discontinuation of study drug ([2]; all cohorts, N=30): 13.3% | Subjects with mild TEAEs ([2]; all cohorts, N=30): 23.3% | Subjects with moderate TEAEs ([2]; all cohorts, N=30): 46.7% | Subjects with severe TEAEs ([2]; all cohorts, N=30): 13.3% | Subjects with treatment-related TEAEs ([2]; all cohorts, N=30): 53.3% | Sedative / anaesthetic response (rats): did not cause a full anaesthetic response | EEG effect (rats; otherwise normal rats): induce burst suppression-like electroencephalogram (EEG) patterns | Half-life [3]: approximately 20 hours
